In ChEMBL document CHEMBL5241093, “Recent advances in the design and discovery of synthetic tyrosinase inhibitors” (Eur J Med Chem, 2021):

Columns and labels:
Tyrosinase [1] = target: T1, Tyrosinase (Agaricus bisporus, UniProt O42713); assay: Inhibition of mushroom tyrosinase incubated for 20 mins by spectrophotometric assay
T1 sequence (O42713 whole entry): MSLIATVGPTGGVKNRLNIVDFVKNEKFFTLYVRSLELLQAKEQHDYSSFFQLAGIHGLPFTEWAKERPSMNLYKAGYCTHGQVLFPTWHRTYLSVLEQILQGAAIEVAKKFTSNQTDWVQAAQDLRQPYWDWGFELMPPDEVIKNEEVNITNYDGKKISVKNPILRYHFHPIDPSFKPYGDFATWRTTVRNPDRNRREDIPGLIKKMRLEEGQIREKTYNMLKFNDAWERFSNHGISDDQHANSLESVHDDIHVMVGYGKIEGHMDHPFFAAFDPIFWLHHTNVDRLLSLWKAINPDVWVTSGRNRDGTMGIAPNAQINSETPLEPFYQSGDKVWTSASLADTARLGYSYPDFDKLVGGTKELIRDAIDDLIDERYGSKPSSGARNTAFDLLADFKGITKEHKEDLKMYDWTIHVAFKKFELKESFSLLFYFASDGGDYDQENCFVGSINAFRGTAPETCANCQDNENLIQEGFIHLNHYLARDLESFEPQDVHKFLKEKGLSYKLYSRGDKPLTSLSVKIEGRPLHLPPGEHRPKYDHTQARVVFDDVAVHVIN

B16 = assay: Anti-melanoma activity against mouse B16 cells assessed as inhibition of tyrosinase activity incubated for 48 hrs by spectrophotometer analysis relative to control; format: functional
Tyrosinase [2] = target: T1, Tyrosinase; assay: Inhibition of mushroom tyrosinase using L-DOPA as substrate incubated for 10 mins by spectrophotometric assay
Tyrosinase [3] = target: T1, Tyrosinase; assay: Inhibition of mushroom tyrosinase using L-DOPA as substrate assessed as diphenolase activity
Tyrosinase [4] = target: T1, Tyrosinase; assay: Inhibition of mushroom tyrosinase using L-tyrosine as substrate assessed as monophenolase activity
Tyrosinase [5] = target: T1, Tyrosinase; assay: Inhibition of mushroom tyrosinase using L-DOPA as substrate incubated for 5 mins
Tyrosinase [6] = target: T1, Tyrosinase; assay: Inhibition of mushroom tyrosinase using L-DOPA as a substrate assessed as inhibition constant incubated for 5 mins by microplate reader analysis
Tyrosinase [7] = target: T1, Tyrosinase; assay: Inhibition of mushroom tyrosinase using L-dopa as substrate incubated for 30 mins by microplate reader analysis
Tyrosinase [8] = target: T1, Tyrosinase; assay: Inhibition of mushroom tyrosinase using L-DOPA as substrate preincubated for 10 mins followed by substrate addition measured after 20 mins by microtitre plate reader analysis
Tyrosinase [9] = target: T2, Tyrosinase (Homo sapiens, UniProt P14679); assay: Inhibition of human his tagged tyrosinase expressed in HEK293 cells using L-DOPA as substrate incubated for 10 mins by microtitre plate reader analysis; format: cell-based
T2 sequence (P14679 whole entry): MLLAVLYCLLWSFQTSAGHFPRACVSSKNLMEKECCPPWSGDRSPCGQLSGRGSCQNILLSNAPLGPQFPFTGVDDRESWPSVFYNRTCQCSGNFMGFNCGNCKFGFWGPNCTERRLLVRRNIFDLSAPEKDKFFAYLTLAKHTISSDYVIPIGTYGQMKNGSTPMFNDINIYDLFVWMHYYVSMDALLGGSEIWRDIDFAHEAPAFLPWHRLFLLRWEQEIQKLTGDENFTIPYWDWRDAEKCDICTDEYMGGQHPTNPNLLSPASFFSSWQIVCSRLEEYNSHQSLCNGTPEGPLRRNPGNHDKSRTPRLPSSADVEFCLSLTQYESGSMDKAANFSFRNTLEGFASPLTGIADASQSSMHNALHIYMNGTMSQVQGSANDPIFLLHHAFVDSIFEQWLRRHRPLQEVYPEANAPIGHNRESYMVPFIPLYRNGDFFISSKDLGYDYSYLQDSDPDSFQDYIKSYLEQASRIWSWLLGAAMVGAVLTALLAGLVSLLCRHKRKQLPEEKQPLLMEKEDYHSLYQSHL

Mushroom tyrosinase [10] = target: T3, Mushroom tyrosinase (Agaricus bisporus, UniProt O42713+Q00024+C7FF04+C7FF05); assay: Inhibition of mushroom diphenolase
Mushroom tyrosinase [11] = target: T3, Mushroom tyrosinase; assay: Inhibition of mushroom monophenolase
Tyrosinase [12] = target: T1, Tyrosinase; assay: Inhibition of mushroom tyrosinase using L-DOPA as substrate by HTS analysis
[13] = Antioxidant activity assessed as DPPH radical scavenging activity incubated for 30 mins under dark condition by microplate reader analysis; format: functional
Tyrosinase [14] = target: T1, Tyrosinase; assay: Inhibition of mushroom tyrosinase using L-DOPA as substrate incubated for 20 mins by microplate reader analysis
Tyrosinase [15] = target: T1, Tyrosinase; assay: Inhibition of mushroom tyrosinase using L-DOPA as substrate incubated for 30 mins
Tyrosinase [16] = target: T1, Tyrosinase; assay: Inhibition of mushroom tyrosinase using L-DOPA as substrate assessed as inhibition constant preincubated with compound for 15 mins by microplate reader analysis
Tyrosinase [17] = target: T1, Tyrosinase; assay: Inhibition of mushroom tyrosinase using L-DOPA as substrate preincubated with compound for 15 mins by microplate reader analysis
Tyrosinase [18] = target: T1, Tyrosinase; assay: Inhibition of mushroom tyrosinase using L-dopa as substrate by spectrophotometric analysis
B16-F10 = assay: Inhibition of melanin production in mouse B16-F10 cells assessed reduction in melanin level measured after 72 hrs by ELISA assay relative to control; format: functional
Tyrosinase [19] = target: T1, Tyrosinase; assay: Inhibition of mushroom tyrosinase using L-DOPA as substrate preincubated for 10 mins followed by substrate addition measured after 5 mins
Tyrosinase [20] = target: T1, Tyrosinase; assay: Inhibition of mushroom tyrosinase using L-tyrosine as substrate assessed as monophenolase activity preincubated for 20 mins followed by substrate addition measured after 10 mins by plate reader analysis
Tyrosinase [21] = target: T1, Tyrosinase; assay: Inhibition of mushroom tyrosinase using L-dopa as substrate assessed as diphenolase activity preincubated for 20 mins followed by substrate addition measured after 10 mins by plate reader analysis
Tyrosinase [22] = target: T1, Tyrosinase; assay: Inhibition of mushroom tyrosinase using L-DOPA as substrate preincubated for 10 mins followed by substrate addition measured after 20 mins
Tyrosinase [23] = target: T1, Tyrosinase; assay: Inhibition of mushroom tyrosinase using L-DOPA as substrate incubated for 20 mins

For `O=C(/C=C/c1cccc(Cl)c1)NCCN1CCOCC1`, the IC50 (Tyrosinase [1]) was 15.2 µM.
For `OC[C@H]1O[C@@H](Oc2ccc(O)cc2)[C@H](O)[C@@H](O)[C@@H]1O` [ARBUTIN], the “inhibition (INH)” value (B16) was 55.4%.
`CCOC(OCC)c1ccc(/C=C2\CCC/C(=C\c3ccc(C(OCC)OCC)cc3)C2=O)cc1` gave an IC50 (Tyrosinase [2]) of 10.1 µM.
`O=C(OCc1cc(=O)c(O)c[nH]1)[C@H](Cc1ccccc1)NCc1ccccc1` showed an IC50 (Tyrosinase [3]) of 8.97 µM and an IC50 (Tyrosinase [4]) of 1.95 µM.
With `OC[C@H]1O[C@H](Oc2cc(CCc3ccc(O)cc3O)cc(O[C@H]3O[C@H](CO)[C@@H](O)[C@H](O)[C@H]3O)c2)[C@H](O)[C@@H](O)[C@@H]1O` the IC50 (Tyrosinase [5]) was 12.8 µM.
With `CC1(C)CC(=O)C2=C(C1)Oc1c(oc(CCl)cc1=O)C2c1ccc(F)cc1` (centres undefined) the Ki (Tyrosinase [6]) was 4 µM.
`O=C1/C(=C/c2ccc(O)c(Br)c2)CSc2ccccc21` showed an IC50 (Tyrosinase [7]) of 4.1 µM.
For `COc1cc(C2CC(c3cc4ccccc4oc3=O)=NN2c2nc(-c3ccc(Br)cc3)cs2)ccc1OCc1ccccc1` (centres undefined), the IC50 (Tyrosinase [8]) was < 0.1 µM.
Compound `Nc1nc(-c2ccc(O)cc2O)cs1` has an EC50 (Tyrosinase [9]) of 245 µM.
In the case of `Nc1ccccc1C(=O)O` [ANTHRANILIC ACID], the IC50 (Mushroom tyrosinase [10]) is reported as 4.72 µM and the IC50 (Mushroom tyrosinase [11]) is reported as 5.15 µM.
Work on `CC(C)C(=O)Nc1nc(-c2ccc(O)cc2O)cs1` yielded an IC50 (Tyrosinase [12]) of 108 µM.
`Cc1cc(OCc2cn(Cc3ccc(F)cc3)nn2)c(C=C2C(=O)NC(=S)NC2=O)cc1Br` showed an EC50 [13] of 39.2 µM and an IC50 (Tyrosinase [14]) of 24.6 µM.
`O=C(COC(=O)c1ccc(O)cc1O)Oc1ccc2oc(=O)ccc2c1` gave an IC50 (Tyrosinase [15]) of 8.96 µM.
With `O=P(O)(c1ccccc1)C(NCc1ccccc1)c1ccccn1` (centres undefined) the Ki (Tyrosinase [16]) was 76 µM and the IC50 (Tyrosinase [17]) was 310 µM.
With `O=C1CSC(c2ccccc2O)N1c1ccc(-c2ccc(N3C(=O)CSC3c3ccccc3O)cc2)cc1` (centres undefined) the IC50 (Tyrosinase [18]) was 0.61 µM.
For `COc1ccccc1-n1c(SCC(=O)Nc2ccc(Br)cc2)nnc1-c1ccccc1`, the IC50 (Tyrosinase [8]) was < 0.1 µM.
With `COc1ccc(-c2n[nH]c(S)n2)cc1` the “inhibition (INH)” value (B16-F10) was 55%.
`CC(=O)Nc1ccc(/N=N/c2c(N)nc(N)nc2Cl)cc1` showed an IC50 (Tyrosinase [19]) of 24.4 µM.
For `Cc1ccc(NC(=O)CCCN2CCN(C/C=C/c3ccccc3)CC2)c(C)c1`, the IC50 (Tyrosinase [8]) was < 0.1 µM.
With `OC[C@H]1O[C@H](Oc2cc(O)cc(CCc3ccc(O)cc3O)c2)[C@H](O)[C@@H](O)[C@@H]1O` the IC50 (Tyrosinase [5]) was 2.63 µM.
For `CC(=O)OC[C@H]1O[C@@H](Oc2ccc(O)cc2)[C@H](O)[C@@H](O)[C@@H]1O`, the “inhibition (INH)” value (B16) was 71.4%.
`N/C(S)=N/N=C/c1ccc([N+](=O)[O-])cc1` gave an IC50 (Tyrosinase [20]) of 0.05 µM and an IC50 (Tyrosinase [21]) of 1.74 µM.
With `Cc1ccc(C(C)C)cc1NC(=O)COC(=O)c1ccc(O)cc1O` the IC50 (Tyrosinase [22]) was 11 µM.
`COc1cc(/C=N/NC(=O)c2ccc(O)c(OC)c2)ccc1O` showed an IC50 (Tyrosinase [23]) of 10 µM.
